The source of these data is article PMC4599007, “The GH130 Family of Mannoside Phosphorylases Contains Glycoside Hydrolases That Target β-1,2-Mannosidic Linkages in Candida Mannan” (The Journal of Biological Chemistry, 2015).

Each structure is given as a SMILES string.

This experiment concerns the target T1, BT3780 (Bacteroides thetaiotaomicron, UniProt Q8A186).
T1 construct: gene BT_3780; signal peptide residues 1-16; residues 17-384 built in crystal (C-terminal Pro printed as 383); monomer
T1 sequence (Q8A186 17-383): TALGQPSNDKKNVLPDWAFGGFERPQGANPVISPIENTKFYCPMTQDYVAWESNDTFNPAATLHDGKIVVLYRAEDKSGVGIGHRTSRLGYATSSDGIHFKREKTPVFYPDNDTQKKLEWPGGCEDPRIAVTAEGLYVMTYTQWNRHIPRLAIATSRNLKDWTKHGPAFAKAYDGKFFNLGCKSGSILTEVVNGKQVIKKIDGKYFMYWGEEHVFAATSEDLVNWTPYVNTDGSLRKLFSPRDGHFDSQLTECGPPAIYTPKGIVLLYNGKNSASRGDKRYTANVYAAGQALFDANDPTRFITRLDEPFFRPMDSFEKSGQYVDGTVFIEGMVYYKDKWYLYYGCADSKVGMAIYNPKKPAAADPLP
Kind of experiment: X-ray crystal structure, […] Å. The class given is binding. Particulars: 0.3 M mannose in crystallisation; bound in -1 and +1 subsites of the active site.

With `OC[C@H]1OC(O)[C@@H](O)[C@@H](O)[C@@H]1O` (stereo partly shown) [mannose], the “X-ray crystal structure, 1.35 Å” value is “The pocket houses two mannose residues (the crystal structure of BT3780 was obtained in the presence”.
